From PMC9503608, “An Insight into Symmetrical Cyanine Dyes as Promising Selective Antiproliferative Agents in Caco-2 Colorectal Cancer Cells” (Molecules, 2022) come the findings set out here.

Common to all, as to type: cell-based, human
The test system of assay [1] is Caco-2 cells. The experiment in a line: Apoptosis by propidium iodide staining and flow cytometry. The method, then:
(§1) The apoptosis occurrence and influence of the dye 12 on the cell cycle were evaluated using propidium iodide (PI) staining and flow cytometry, as described by Riccardi and Nicolleti. After the near confluency of the culture, trypsinisation, and counting, Caco-2 cells were seeded (2 mL, 3 × 10^4 cells/mL) in 6-well plates. After 48 h of adherence, the cells were treated with the test solutions (3 mL and 5 mL for negative control) and incubated for 72 h. Untreated cells were used as the negative control, and sorbitol and 5-FU [56] were used as positive controls for the apoptosis and cell cycle distribution studies, respectively. After incubation, the supernatant was collected and the cells were washed with PBS and combined with the cells harvested using the trypsin treatment. This cell suspension was maintained on ice and centrifugated, and then the pellet was resuspended in 0.5 mL of PBS. The cells were fixed by adding 4.5 mL of 70% ethanol cooled at −20 °C and were stored at the same temperature. For the cytometry analysis, PBS was added to the fixed cells before centrifugation, and then the ethanolic supernatant was removed. The pellet was resuspended in 0.5 mL of PBS and 0.5 mL of DNA extraction (192 mL of 0.2 M sodium phosphate and 8 mL of […], pH 7.8) was added. After incubation for 5 min, the cells were centrifuged, the supernatant was removed, and the pellet resuspended in 0.3 mL of staining solution (20 µg/mL of PI and 0.2 mg/mL of DNase-free RNase in PBS). Using a FACSCalibur flow cytometer and the 488 nm laser line, a minimum of 20,000 events were recorded. Acquisition and apoptosis analysis was performed using BD CellQuestTM Pro 4.0.2 Software. Cell cycle analysis was performed with ModFit LT 5.0.9 software. To exclude debris and necrotic cells, events with a lower diameter (forward scatter; FCS) and reduced PI fluorescence (FL3) than the hypodiploid apoptotic cells were eliminated. Two independent experiments were performed.

For assay [2], the system named is Caco-2 cells. The experiment in a line: Cell cycle distribution by propidium iodide staining and flow cytometry. Conditions: dye 12 and 5-FU 10 µM 72 h, sorbitol 600 mM 24 h, versus untreated cells. As for the experimental part:
as §1

In assay [3] the test system is MCF-7 breast adenocarcinoma cell line. The assay can be described thus: MTT cell viability assay, MCF-7. Conditions: Homo sapiens. As for the experimental part: Caco-2, MCF-7, PC-3, and NHDF cell lines were obtained from the American Type Culture Collection (ATCC) and maintained in 75 cm^2 culture flasks in a humidified atmosphere at 37 °C with 5% carbon dioxide using a LEEC Culture Safe Precision CO2 Incubator. The culture media was renewed every two to three days. The NHDF cell line was cultured in Roswell Park Memorial Institute (RPMI) medium supplemented with 10% of inactivated fetal bovine serum (FBS), 2 mM of L-glutamine, 10 mM of 4-(2-hydroxyethyl)-1-piperazineethanesulfonic acid (HEPES), 1 mM of sodium pyruvate, and 1% of antibiotic/antimycotic mixture (Ab; 10,000 U/mL of penicillin G, […] of streptomycin, and 25 µg/mL of amphotericin B). The PC-3 cell line was also cultured in RPMI 1640 medium supplemented with 10% inactivated FBS and 1% of an antibiotic mixture (Sp; 10,000 U/mL of penicillin G and […] of streptomycin). The Caco-2 and MCF-7 cell lines were grown in Dulbecco’s Modified Eagle Medium (DMEM). Caco-2 was supplemented with 20% of inactivated FBS and 1% of Sp. On the other hand, the MCF-7 medium was complemented with 10% of inactivated FBS and 1% of Ab. All manipulations were performed in a Labculture Class II A2 Biological Safety Cabinet.
After the near confluency of cultures, cells were detached with a solution of 0.125 g/L trypsin and 0.02 g/L ethylenediaminetetracetic acid (EDTA), counted using the trypan blue method, resuspended, and seeded in 96-well culture plates (100 µL, 2 × 10^4 cells/mL). Following 48 h of adherence, cells were treated with the test solutions and incubated for 72 h. This incubation, as well as the solution manipulations, were performed in an environment protected from light. After the incubation, the medium was replaced with a fresh incomplete culture medium (without FBS and Ab or Sp) and MTT solution (5 mg/mL in phosphate buffer saline (PBS)). After additional incubation for 4 h, the MTT medium was removed, formazan crystals were dissolved in DMSO, and the optical density of each well was measured at 570 nm using a microplate spectrophotometer Bio-Rad xMark. Untreated cells were used as a negative control and 5-FU as the positive control. The results were expressed as the relative cell proliferation relative to the negative control cells. […] To determine the IC50 values, Caco-2, MCF-7, PC-3, and NHDF cells were exposed to increasing concentrations between 0.001 and 100 μM.

In the case of `CN1C(=Cc2oc3ccccc3[n+]2C)Oc2ccccc21.Cc1ccc(S(=O)(=O)[O-])cc1` [Dye 12, 3-Methyl-2-((3-methylbenzo[d]oxazol-2(3H)-ylidene)methyl)benzo[d]oxazol-3-ium 4-methylbenzenesulfonate], the “increase in apoptotic cells relative to untreated cells” value in the assay on Caco-2 cells [1] (Caco-2, 10 µM, 72 h) was found to be 2%. In addition, the “apoptosis induced (percent of cells)” value with Caco-2 cells [1] (Caco-2, dye 12 10 µM 72 h, sorbitol 600 mM 24 h) is recorded as “about 3%”. In addition, the “effect on cell cycle distribution” value in the assay with Caco-2 cells [2] is reported as “notorious increase in the number of cells in the G0/G1 phase”. Further, in assay [3] (MCF7, 72 h, single concentration of 10 µM, 72 h, mean ± SD, read-out: cell viability percentage in relation with control, MCF-7), the viability at 10 µM came out at 10.8 ± 1.98%. The compound further showed an IC50 in assay [3] (MCF7, 72 h of incubation, MTT, protected from light) of 4.57 µM.
